Our source for the inhibition and IC50 values is ChEMBL document CHEMBL4184305, “Inhibition of histone lysine methyltransferases G9a and GLP by ejection of structural Zn(II)” (Bioorg Med Chem Lett, 2018).

Calls of active or inactive are those of the source. The calls are words filed in the database; no cut-off is given here.

Assay [1] concerns the target T1, Histone-lysine N-methyltransferase EHMT2 (Homo sapiens) (UniProt Q96KQ7).
T1 sequence (whole entry): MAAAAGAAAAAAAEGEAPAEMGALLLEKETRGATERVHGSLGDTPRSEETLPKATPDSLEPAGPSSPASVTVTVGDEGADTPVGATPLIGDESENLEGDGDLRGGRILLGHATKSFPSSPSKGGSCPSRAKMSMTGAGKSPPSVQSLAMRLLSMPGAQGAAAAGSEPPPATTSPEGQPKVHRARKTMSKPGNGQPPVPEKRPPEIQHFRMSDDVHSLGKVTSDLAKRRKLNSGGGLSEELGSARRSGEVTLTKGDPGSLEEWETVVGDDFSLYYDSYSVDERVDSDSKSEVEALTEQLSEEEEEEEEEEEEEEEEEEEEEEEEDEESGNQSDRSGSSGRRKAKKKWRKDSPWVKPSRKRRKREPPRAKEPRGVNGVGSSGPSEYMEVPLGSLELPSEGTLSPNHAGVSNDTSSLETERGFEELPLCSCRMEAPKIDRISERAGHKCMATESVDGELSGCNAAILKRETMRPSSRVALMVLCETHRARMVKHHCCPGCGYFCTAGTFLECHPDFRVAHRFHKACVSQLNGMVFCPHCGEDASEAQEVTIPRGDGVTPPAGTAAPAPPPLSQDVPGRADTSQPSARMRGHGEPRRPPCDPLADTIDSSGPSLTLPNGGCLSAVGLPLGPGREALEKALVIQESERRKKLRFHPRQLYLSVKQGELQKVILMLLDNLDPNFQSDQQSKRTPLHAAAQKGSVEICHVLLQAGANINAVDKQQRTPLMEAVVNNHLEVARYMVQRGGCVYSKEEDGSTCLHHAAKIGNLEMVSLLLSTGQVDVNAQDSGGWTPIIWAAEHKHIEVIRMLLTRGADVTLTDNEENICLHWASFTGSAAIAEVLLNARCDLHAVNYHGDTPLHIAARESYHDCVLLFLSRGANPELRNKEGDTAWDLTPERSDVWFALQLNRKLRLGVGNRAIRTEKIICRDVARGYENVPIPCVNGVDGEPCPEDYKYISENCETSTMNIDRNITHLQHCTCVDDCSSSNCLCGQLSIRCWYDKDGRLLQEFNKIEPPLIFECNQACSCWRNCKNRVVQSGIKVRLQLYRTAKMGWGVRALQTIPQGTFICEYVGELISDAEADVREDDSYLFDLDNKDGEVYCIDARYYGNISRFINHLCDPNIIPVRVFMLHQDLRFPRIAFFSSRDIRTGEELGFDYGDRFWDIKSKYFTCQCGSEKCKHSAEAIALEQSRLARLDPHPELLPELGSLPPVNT
Briefly: Inhibition of wild type recombinant human histone lysine methyltransferase G9a (913 to 1193 residues) expressed in Escherichia coli Rosetta BL21 DE3 PlysS assessed as zinc ions ejection from 3 types of Cys9-type Zn fingers at >50 uM after 1 hr by circular dichroism analysis. In general terms: Circular dichroism is widely used to follow secondary structure.

Assay [2] has as its target T2, Histone-lysine N-methyltransferase EHMT1 (Homo sapiens) (UniProt Q9H9B1).
T2 sequence (whole entry): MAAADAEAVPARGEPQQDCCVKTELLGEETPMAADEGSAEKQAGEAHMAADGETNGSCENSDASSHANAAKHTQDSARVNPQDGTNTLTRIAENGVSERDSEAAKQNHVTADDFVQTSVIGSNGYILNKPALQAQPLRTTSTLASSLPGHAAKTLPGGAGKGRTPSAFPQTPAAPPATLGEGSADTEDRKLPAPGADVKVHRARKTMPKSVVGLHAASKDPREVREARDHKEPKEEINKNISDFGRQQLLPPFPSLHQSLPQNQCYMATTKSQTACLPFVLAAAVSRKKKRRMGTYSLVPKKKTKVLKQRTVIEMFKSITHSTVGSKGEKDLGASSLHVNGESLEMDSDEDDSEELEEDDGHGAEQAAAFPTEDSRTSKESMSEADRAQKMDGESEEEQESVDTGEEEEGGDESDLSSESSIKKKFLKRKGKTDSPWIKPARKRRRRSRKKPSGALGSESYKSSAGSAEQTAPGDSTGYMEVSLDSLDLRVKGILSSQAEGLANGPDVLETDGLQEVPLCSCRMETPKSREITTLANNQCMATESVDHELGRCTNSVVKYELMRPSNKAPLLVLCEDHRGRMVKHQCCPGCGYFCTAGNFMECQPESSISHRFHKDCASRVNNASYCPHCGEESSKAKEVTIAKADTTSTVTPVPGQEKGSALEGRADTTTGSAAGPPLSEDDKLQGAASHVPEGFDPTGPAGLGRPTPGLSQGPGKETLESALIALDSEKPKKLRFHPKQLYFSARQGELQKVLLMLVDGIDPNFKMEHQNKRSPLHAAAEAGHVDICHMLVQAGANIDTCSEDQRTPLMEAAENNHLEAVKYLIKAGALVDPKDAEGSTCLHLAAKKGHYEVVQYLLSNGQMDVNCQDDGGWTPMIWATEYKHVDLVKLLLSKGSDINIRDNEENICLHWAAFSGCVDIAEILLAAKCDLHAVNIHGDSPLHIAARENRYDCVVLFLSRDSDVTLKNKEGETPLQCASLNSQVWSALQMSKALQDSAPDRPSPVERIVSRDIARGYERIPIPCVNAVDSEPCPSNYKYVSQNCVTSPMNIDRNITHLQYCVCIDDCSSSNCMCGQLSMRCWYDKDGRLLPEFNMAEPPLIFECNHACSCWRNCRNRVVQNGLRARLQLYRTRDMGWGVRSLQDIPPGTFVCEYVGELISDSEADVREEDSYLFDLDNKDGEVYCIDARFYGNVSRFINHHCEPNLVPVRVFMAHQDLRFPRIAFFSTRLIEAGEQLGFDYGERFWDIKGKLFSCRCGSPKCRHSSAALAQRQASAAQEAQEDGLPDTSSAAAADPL
Briefly: Inhibition of wild type recombinant human histone lysine methyltransferase GLP (951 to 1235 residues) expressed in Escherichia coli Rosetta BL21 DE3 PlysS assessed as zinc ions ejection from 3 types of Cys9-type Zn fingers at >50 uM after 1 hr by circular dichroism analysis.

For assay [3], the target named is T2, Histone-lysine N-methyltransferase EHMT1 (Homo sapiens). Briefly: Inhibition of wild type recombinant human histone lysine methyltransferase GLP (951 to 1235 residues) expressed in Escherichia coli Rosetta BL21 DE3 PlysS assessed as zinc ions ejection from Cys4-Zn finger at 2.5 to 100 uM after 500 to 3500 secs by FluoZin-3 based fluorescence assay.
Assay [4] concerns the target T1, Histone-lysine N-methyltransferase EHMT2 (Homo sapiens). Briefly: Inhibition of wild type recombinant human histone lysine methyltransferase G9a (913 to 1193 residues) expressed in Escherichia coli Rosetta BL21 DE3 PlysS assessed as zinc ions ejection from 3 types of Cys9-type Zn fingers at >25 uM after 1 hr by circular dichroism analysis.
Assay [5] deals with T3, Histone-lysine N-methyltransferase EHMT2 (Homo sapiens, UniProt Q96KQ7).
T3 sequence (Q96KQ7 whole entry): T1 sequence (whole entry)
Briefly: Inhibition of wild type recombinant human histone lysine methyltransferase G9a (913 to 1193 residues) expressed in Escherichia coli Rosetta BL21 DE3 PlysS using ARTKQTARKSTGGKA as substrate preincubated for 5 mins followed by substrate/SAM addition measured after 60 mins by MALDI-TOF MS analysis.

Take `CCN(CC)C(=S)SSC(=S)N(CC)CC`: the inhibition entry in assay [1], in assay [2] and in assay [3] was “Active” in each case.

Regarding `O=c1c2ccccc2[se]n1-c1ccccc1` [EBSELEN], the inhibition result in assay [4] is “Active”. Also, in assay [5], the IC50 – broadly, the concentration that gives 50% inhibition – came to 400 nM.
